Target: PrP (Mesocricetus auratus, UniProt P04273)
Type: binding, hamster

PrP, sequence (P04273 23-231 limits assumed): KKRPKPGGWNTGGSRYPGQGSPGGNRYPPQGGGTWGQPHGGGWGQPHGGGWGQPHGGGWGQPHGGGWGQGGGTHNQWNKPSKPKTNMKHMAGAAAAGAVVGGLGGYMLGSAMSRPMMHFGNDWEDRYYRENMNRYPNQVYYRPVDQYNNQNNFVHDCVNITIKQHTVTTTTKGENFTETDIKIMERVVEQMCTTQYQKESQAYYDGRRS

## Nc1c(/N=N/c2ccc(-c3ccc(/N=N/c4cc(S(=O)(=O)O)c5ccccc5c4N)cc3)cc2)cc(S(=O)(=O)O)c2ccccc12 [Congo red]
Congo red pre-incubated with PrP before RADA exposure
  inhibition of binding of PrP to RADA: dose-dependent inhibition
Congo red pre-incubation with PrP, Mann-Whitney
  Congo red concentration with significant inhibition of PrP binding: 1 µM
RADA pre-incubated with Congo red before or after plate binding
  inhibition of binding of PrP: ineffective
